Test results from patent US12274756B2, “Methods of treating and diagnosing epilepsy” (YALE UNIVERSITY, priority 2019, dated 2025).

Test system: Rheb^CA neurons
Experiment: Whole cell patch clamp recording in acute slices, Rheb^CA (FCM) neurons
Type: cell-based, mice
Description: Each DNA plasmid was diluted in sterile PBS (pH 7.4) to a final concentration of 1.5-3 μg/μl (specific concentrations below). About 1 μl of DNA solution containing 0.1% fast green was injected into the lateral ventricle of E15.5±0.5 fetuses with a glass pipette. After injection, PBS soaked tweezer-type electrodes (model 520, BTX) were positioned on heads of the fetuses across the uterine wall and 6 square-pulses (42V, 50 ms duration, 950 ms intervals) were applied using a pulse generator (ECM830, BTX), Mice were prescreened for successful electroporation on a fluorescence enabled stereo microscope (SZX16, Olympus) prior to recruitment for EEG monitoring. To generate epilepsy-associated FCM, a DNA solution composed of pCAG-RhebS16H (Rheb^CA, 2 μg/μl) and pCAG-tdTomato (1 μg/μl) was injected in half of all fetuses while pCAG-GFP (3 μg/μl) containing solution was injected in the remaining littermates as controls. To silence FCM neurons, pCAG-Kir2.1-T2A-tdTomato (2 μg/μl)+pCAG-Rheb^CA (2 μg/μl) was injected in half of the fetuses while the remaining half received pCAG-Rheb^CA (2 μg/μl)+pCAG-GFP (2 μg/μl) as controls.
1-5-week-old mice were used for acute slices. Tissue was dissected and sliced in ice cold artificial cerebral spinal fluid (aCSF)oxygenated with 95% O2/5% CO2. The aCSF contained (all in mM): 124 NaCl, 3 KCl, 1.25 NaH2PO4, 1 MgSO4, 26 NaHCO3, 10 Dextrose, 2 CaCl2, 0.4 ascorbate, 4 Na-Lactate, 2 Na-Pyruvate (290±5 mOsm/kg, pH 7.2). Coronal sections (350 μm) were prepared using a vibratome (Vibratome 1000). Sections were incubated in aCSF at 32° C. for 45 minutes before returning to room temperature (25° C.) where they were kept for 8 to 10 hours during experimentation. Fluorescent neurons in the mPFC were visualized using epifluorescence on an Olympus BX51WI microscope with a 40× water immersion objective (Olympus, LUMPlanFL/IR). Whole-cell recordings were performed at 28° C. using pulled glass pipettes ([…]) filled with internal solution (in mM: 110 K-gluconate, 4 KCL, 10 HEPES, 10 di-tris-phosphocreatine, 4 Mg-ATP, 0.3 Na-GTP). Recordings were acquired with an amplifier (Axopatch 200B, Molecular Devices), The resting membrane potential was recorded within the first 10 seconds after achieving whole, cell configuration in current-clamp mode, while the cell is at rest without any holding current. The membrane conductance was calculated using the average membrane potential change from ten hyperpolarizing current injections of −500 pA in current-clamp mode when the cell is at rest. The action potential half width was calculated at half of the peak amplitude of a single action potential induced by current injection. The action potential firing threshold was defined as the membrane potential at which the first derivative of an action potential in current-clamp mode achieves 10% of its peak velocity (dV/dt). The action potential input-output curve was generated by injecting positive current in current-clamp mode from 0 to 2 nA at 100 pA increments for 500 msec.

[1] = Rheb^CA neurons with zatebradine

`C=C[C@@]1(C)CC(=O)[C@]2(O)[C@@]3(C)[C@@H](O)CCC(C)(C)[C@@H]3[C@H](O)[C@H](OC(C)=O)[C@@]2(C)O1` [forskolin] was tested, and the “neurons generating repetitive action potentials” value (Rheb^CA neurons, forskolin bath-application) was 4/9.

`COc1ccc(CCN(C)CCCN2CCc3cc(OC)c(OC)cc3CC2=O)cc1OC` [zatebradine] was tested, and the “h current amplitude difference (ΔI)” value (500 ms-long voltage step, Rheb^CA vs Rheb^CA+zatebradine) was “significantly reduced”, the “residual inward current at −90 mV” value [1] was “no residual inward current” and the “resting membrane potential (RMP)” value [1] was “shifted RMP of cells to hyperpolarized values similar to those of control neurons”. For the same molecule, the “hyperpolarization-induced voltage sag response” value (Rheb^CA neurons, −500 pA current step, zatebradine 40 μM) was “eliminated the sag response”, the “HCN currents in Rheb^CA neurons before seizure onset” value (slices from P8-P12 mice) was “zatebradine-sensitive” and the hyperpolarization-activated inward currents (voltage-clamp steps from −40 to −130 mV, in the presence of zatebradine, not fully blocked) was “significantly reduced”.
